Read-outs that look alike come from different tables or passages of the source.
Test system: SARS-CoV-2 strain USA-WA1/2020
Assay: microbe, parasite or virus in culture
Type: cell-based
Conditions: Severe acute respiratory syndrome coronavirus 2, HeLa-ACE2, 24 h, read-out: EC50, uM (Hela)
[1] = HeLa-ACE2 cells, SARS-CoV-2 infection, 24 h, class symbols

Compound	EC50 [1] [µM]	further results
O=C(N[C@@H](CC1CC1)C(=O)N[C@@H](C[C@@H]1CCNC1=O)C(=O)COC(F)(F)F)c1nnc(-c2ccc(F)cc2)o1 [Compound 184, N-((S)-3-cyclopropyl-1-oxo-1-(((S)-3-oxo-1-((S)-2-oxopyrrolidin-3-yl)-4-(trifluoromethoxy)butan-2-yl)amino)propan-2-yl)-5-(4-fluorophenyl)-1,3,4-oxadiazole-2-carboxamide]	0.05 to 0.2	–
CC(C)C[C@H](NC(=O)C(=O)Nc1c(C2CC2)cccc1C1CC1)C(=O)N[C@@H](C[C@@H]1CCNC1=O)C(=O)COC(F)(F)F [Compound 185, N1-(2,6-dicyclopropylphenyl)-N2-((S)-4-methyl-1-oxo-1-(((S)-3-oxo-1-((S)-2-oxopyrrolidin-3-yl)-4-(trifluoromethoxy)butan-2-yl)amino)pentan-2-yl)oxalamide]	< 0.05	–
Cc1ccc(C2(NC(=O)C(=O)N[C@@H](CC(C)C)C(=O)N[C@@H](C[C@@H]3CCNC3=O)C(=O)COC(F)(F)F)CC2)cc1 [Compound 186, N1-((S)-4-methyl-1-oxo-1-(((S)-3-oxo-1-((S)-2-oxopyrrolidin-3-yl)-4-(trifluoromethoxy)butan-2-yl)amino)pentan-2-yl)-N2-(l-(p-tyolyl)-cyclopropyl)oxalamide]	< 0.05	–
CC(C)C[C@H](NC(=O)c1cc2ccncc2[nH]1)C(=O)N[C@@H](C[C@@H]1CCNC1=O)C(=O)COC(F)(F)F [Compound 187, N-((S)-4-methyl-1-oxo-1-(((S)-3-oxo-1-((S)-2-oxopyrrolidin-3-yl)-4-(trifluoromethoxy)butan-2-yl)amino)pentan-2-yl)-1H-pyrrolo[2,3-c]pyridine-2-carboxamide]	0.05 to 0.2	–
COc1cccc(NC(=O)C(=O)N[C@@H](CC(C)C)C(=O)N[C@@H](C[C@@H]2CCNC2=O)C(=O)COC(F)(F)F)c1 [Compound 188, N1-(3-methoxyphenyl)-N2-((S)-4-methyl-1-oxo-1-(((S)-3-oxo-1-((S)-2-oxopyrrolidin-3-yl)-4-(trifluoromethoxy)butan-2-yl)amino)pentan-2-yl)oxalamide]	< 0.05	–
CC(C)C[C@H](NC(=O)C1CCCNC1=O)C(=O)N[C@@H](C[C@@H]1CCNC1=O)C(=O)COC(F)(F)F (stereo partly drawn) [Compound 190, N-((S)-4-methyl-1-oxo-1-(((S)-3-oxo-1-((S)-2-oxopyrrolidin-3-yl)-4-(trifluoromethoxy)butan-2-yl)amino)pentan-2-yl)-2-oxopiperidine-3-carboxamide]	–	EC50 (HeLa-ACE2 cells, SARS-CoV-2 infection, 24 h, cells given as a bound): > 1 µM
CC(C)C[C@H](NC(=O)C(=O)NC12CC(C1)C2)C(=O)N[C@@H](C[C@@H]1CCNC1=O)C(=O)COC(F)(F)F [Compound 191, N1-(bicyclo[1.1.1]-pentan-1-yl)-N2-((S)-4-methyl-1-oxo-1-(((S)-3-oxo-1-((S)-2-oxopyrrolidin-3-yl)-4-(trifluoromethoxy)butan-2-yl)amino)pentan-2-yl)oxalamide]	< 0.05	–
O=C(N[C@@H](CC1CC1)C(=O)N[C@@H](C[C@@H]1CCNC1=O)C(=O)COC(F)(F)F)c1cc(-c2ccccc2)n[nH]1 [Compound 192, N-((S)-3-cyclopropyl-1-oxo-1-(((S)-3-oxo-1-((S)-2-oxopyrrolidin-3-yl)-4-(trifluoromethoxy)butan-2-yl)amino)propan-2-yl)-3-phenyl-1H-pyrazole-5-carboxamide]	0.05 to 0.2	–
COCC(C)(C)NC(=O)C(=O)N[C@@H](CC(C)C)C(=O)N[C@@H](C[C@@H]1CCNC1=O)C(=O)COC(F)(F)F [Compound 193, N1-(1-methoxy-2-methylpropan-2-yl)-N2-((S)-4-methyl-1-oxo-1-(((S)-3-oxo-1-((S)-2-oxopyrrolidin-3-yl)-4-(trifluoromethoxy)butan-2-yl)amino)pentan-2-yl)oxalamide]	< 0.05	–
CC(C)C[C@H](NC(=O)c1cc2cccnc2[nH]1)C(=O)N[C@@H](C[C@@H]1CCNC1=O)C(=O)COC(F)(F)F [Compound 194, N-((S)-4-methyl-1-oxo-1-(((S)-3-oxo-1-((S)-2-oxopyrrolidin-3-yl)-4-(trifluoromethoxy)butan-2-yl)amino)pentan-2-yl)-1H-pyrrolo[2,3-b]pyridine-2-carboxamide]	< 0.05	–
COc1cccc2[nH]c(C(=O)N[C@@H](CC(C)C)C(=O)N[C@@H](CC3CCNC3=O)C(=O)COP(=O)(c3ccccc3)c3ccccc3)cc12 (stereo partly drawn) [Compound 195, (3S)-3-((S)-2-(4-methoxy-1H-indole-2-carboxamido)-4-methylpentanamido)-2-oxo-4-(2-oxopyrrolidin-3-yl)butyl diphenylphosphinate]	–	EC50: 0.05 to 0.2 µM
CC(C)C[C@H](NC(=O)C(=O)N1CCCc2ccccc21)C(=O)N[C@@H](CC1CCNC1=O)C(=O)COC(F)(F)F (stereo partly drawn) [Compound 196, (2S)-2-(2-(3,4-dihydroquinolin-1(2H)-yl)-2-oxoacetamido)-4-methyl-N-((2S)-3-oxo-1-(2-oxopyrrolidin-3-yl)-4-(trifluoromethoxy)butan-2-yl)pentanamide]	< 0.05	–
CC(C)C[C@H](NC(=O)C(=O)Nc1ccccc1F)c1cn([C@@H](C[C@@H]2CCNC2=O)C(=O)COc2c(F)c(F)cc(F)c2F)nn1 [Compound 197, N1-(2-fluorophenyl)-N2-((S)-3-methyl-1-(1-((S)-3-oxo-1-((S)-2-oxopyrrolidin-3-yl)-4-(2,3,5,6-tetrafluorophenoxy)butan-2-yl)-1H-1,2,3-triazol-4-yl)butyl)oxalamide]	0.5 to 1	–
COc1cccc2[nH]c(C(=O)N[C@@H](CC(C)C)C(=O)N[C@@H](C[C@@H]3CCNC3=O)C(=O)COC(F)F)cc12 [Compound 198, N—((S)-1-(((S)-4-(difluoromethoxy)-3-oxo-1-((S)-2-oxopyrrolidin-3-yl)butan-2-yl)amino)-4-methyl-1-oxopentan-2-yl)-4-methoxy-1H-indole-2-carboxamide]	0.2 to 0.5	–
CC(C)C[C@H](NC(=O)OCc1cccc(Cl)c1)C(=O)N[C@@H](C[C@@H]1CCNC1=O)C(=O)COC(F)(F)F [Compound 199, 3-chlorobenzyl ((S)-4-methyl-1-oxo-1-(((S)-3-oxo-1-((S)-2-oxopyrrolidin-3-yl)-4-(trifluoromethoxy)butan-2-yl)amino)pentan-2-yl)carbamate]	< 0.05	–
CC(C)C[C@H](NC(=O)c1cc2cnccc2[nH]1)C(=O)N[C@@H](C[C@@H]1CCNC1=O)C(=O)COC(F)(F)F [Compound 200, N-((S)-4-methyl-1-oxo-1-(((S)-3-oxo-1-((S)-2-oxopyrrolidin-3-yl)-4-(trifluoromethoxy)butan-2-yl)amino)pentan-2-yl)-1H-pyrrolo[3,2-c]pyridine-2-carboxamide]	0.2 to 0.5	–
O=C(N[C@@H](CC1CC1)C(=O)N[C@@H](C[C@@H]1CCNC1=O)C(=O)COC(F)(F)F)c1nc2ccccc2o1 [Compound 201, N-((S)-3-cyclopropyl-1-oxo-1-(((S)-3-oxo-1-((S)-2-oxopyrrolidin-3-yl)-4-(trifluoromethoxy)butan-2-yl)amino)propan-2-yl)benzo[d]oxazole-2-carboxamide]	< 0.05	–
CC(C)C[C@H](NC(=O)c1cn2ccccc2n1)C(=O)N[C@@H](C[C@@H]1CCNC1=O)C(=O)COC(F)(F)F [Compound 202, N-((S)-4-methyl-1-oxo-1-(((S)-3-oxo-1-((S)-2-oxopyrrolidin-3-yl)-4-(trifluoromethoxy)butan-2-yl)amino)pentan-2-yl)imidazo[1,2-a]pyridine-2-carboxamide]	0.05 to 0.2	–
CC(C)C[C@H](NC(=O)c1cn2ncccc2n1)C(=O)N[C@@H](C[C@@H]1CCNC1=O)C(=O)COC(F)(F)F [Compound 203, N-((S)-4-methyl-1-oxo-1-(((S)-3-oxo-1-((S)-2-oxopyrrolidin-3-yl)-4-(trifluoromethoxy)butan-2-yl)amino)pentan-2-yl)imidazo[1,2-b]pyridazine-2-carboxamide]	0.05 to 0.2	–
CC(C)C[C@H](NC(=O)C1Cc2ccccc2N1)C(=O)N[C@@H](C[C@@H]1CCNC1=O)C(=O)COC(F)(F)F (stereo partly drawn) [Compound 204, N-((S)-4-methyl-1-oxo-1-(((S)-3-oxo-1-((S)-2-oxopyrrolidin-3-yl)-4-(trifluoromethoxy)butan-2-yl)amino)pentan-2-yl)indoline-2-carboxamide]	0.05 to 0.2	–
CC(C)C[C@H](NC(=O)C(=O)NC1CC(F)(F)C1)C(=O)N[C@@H](C[C@@H]1CCNC1=O)C(=O)COC(F)(F)F [Compound 205, Nl-(3,3-difluorocyclobutyl)-N2-((S)-4-methyl-1-oxo-1-(((S)-3-oxo-1-((S)-2-oxopyrrolidin-3-yl)-4-(trifluoromethoxy)butan-2-yl)amino)pentan-2-yl)oxalamide]	< 0.05	–
Cc1ccccc1NC(=O)C(=O)N[C@@H](CC(C)C)C(=O)N[C@@H](C[C@@H]1CCNC1=O)C(=O)COC(F)(F)F [Compound 206, N^1—((S)-4-methyl-1-oxo-1-(((S)-3-oxo-1-((S)-2-oxopyrrolidin-3-yl)-4-(trifluoromethoxy)butan-2-yl)amino)pentan-2-yl)-N^2-(o-tolyl)oxalamide]	< 0.05	–
CC(C)C[C@H](NC(=O)[C@H](O)Cc1ccccc1)C(=O)N[C@@H](C[C@@H]1CCNC1=O)C(=O)COC(F)(F)F [Compound 207, (S)-2-((R)-2-hydroxy-3-phenylpropanamido)-4-methyl-N-((S)-3-oxo-1-((S)-2-oxopyrrolidin-3-yl)-4-(trifluoromethoxy)butan-2-yl)pentanamide]	< 0.05	–
CC(C)C[C@H](NC(=O)[C@H](CCCCN)NC(=O)c1ccccc1F)C(=O)N[C@@H](C[C@@H]1CCNC1=O)C(=O)COC(F)(F)F [Compound 208, N-((S)-6-amino-1-(((S)-4-methyl-1-oxo-1-(((S)-3-oxo-1-((S)-2-oxopyrrolidin-3-yl)-4-(trifluoromethoxy)butan-2-yl)amino)pentan-2-yl)amino)-1-oxohexan-2-yl)-2-fluorobenzamide]	–	EC50 (HeLa-ACE2 cells, SARS-CoV-2 infection, 24 h, bound printed in cell): > 1 µM

Source: patent US11708348B2, “Protease inhibitors for treatment of coronavirus infections” (The Scripps Research Institute, priority 2021, dated 2023)
